≈ marks a conversion by molar mass, not a printed value. Where two headings read alike, the source gives them in different places.
Legend:
human D2R/β-arrestin [1] = target: T1, human D2R/β-arrestin (Homo sapiens (Human), UniProt P14416); experiment: Gi/cAMP agonist assay (Lance Ultra cAMP, Forskolin); type: cell-based; conditions: CHO-K1 cell line expressing human D2R/β-arrestin
Outline: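 Cells were plated and incubated before compounds were pin-transferred and incubated for 10 min at 37 °C. Forskolin was then added to stimulate cAMP. cAMP was detected by Lance Ultra TR-FRET using Eu-cAMP tracer and ULight-anti-cAMP antibody.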

D2 = D2 (Homo sapiens (Human), UniProt P14416); experiment: D2 radioligand binding assay
Chain of D2 (P14416 whole entry): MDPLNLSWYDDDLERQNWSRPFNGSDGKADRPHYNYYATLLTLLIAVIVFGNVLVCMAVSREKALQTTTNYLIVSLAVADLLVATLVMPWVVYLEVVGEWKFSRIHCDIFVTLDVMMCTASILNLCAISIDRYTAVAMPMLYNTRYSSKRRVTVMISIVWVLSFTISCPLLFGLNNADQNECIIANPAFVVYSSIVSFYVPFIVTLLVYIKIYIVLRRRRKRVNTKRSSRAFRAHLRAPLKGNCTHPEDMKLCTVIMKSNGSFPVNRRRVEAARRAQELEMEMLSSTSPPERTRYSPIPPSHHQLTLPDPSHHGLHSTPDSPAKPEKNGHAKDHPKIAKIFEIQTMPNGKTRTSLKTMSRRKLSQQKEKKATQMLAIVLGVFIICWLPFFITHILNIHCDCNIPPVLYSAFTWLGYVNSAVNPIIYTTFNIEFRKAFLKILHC

human D2R/β-arrestin [2] = target: T1, human D2R/β-arrestin; experiment: cell-based; conditions: β-arrestin Antagonist, CHO-K1 cell line expressing human D2R/β-arrestin; quinpirole used as agonist
human D2R/β-arrestin [3] = target: T1, human D2R/β-arrestin; experiment: β-Arrestin agonist assay (PathHunter); type: cell-based; conditions: CHO-K1 cell line expressing human D2R/β-arrestin
Outline: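 After compound incubation, detection reagent (Buffer:Emerald II:Galactor-Star, 19:5:1) added and luminescence or fluorescence read.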

human D2R/β-arrestin [4] = target: T1, human D2R/β-arrestin; conditions: read-out: cAMP Antagonist
human D2R/β-arrestin [5] = target: T1, human D2R/β-arrestin; experiment: cell-based; conditions: cAMP Antagonist, CHO-K1 cell line expressing human D2R/β-arrestin; quinpirole used as agonist
[6] = Microsomal stability, mouse
plasma protein [7] = experiment: Plasma protein binding, mouse; type: in vitro ADME; conditions: for fraction unbound: plasma, read-out: Plasma Protein Binding % bound
plasma protein [8] = experiment: Plasma protein binding, human; type: in vitro ADME; conditions: plasma, read-out: Plasma Protein Binding % bound
Plasma stability, human = type: in vitro ADME
Plasma stability, rat = type: in vitro ADME
[9] = Microsomal stability, rat; type: in vitro ADME
plasma protein [10] = experiment: Plasma protein binding, rat; type: in vitro ADME; conditions: plasma, read-out: Plasma Protein Binding % bound
[11] = Microsomal stability, human; type: in vitro ADME
Solubility in PBS = type: physicochemical; conditions: aqueous buffer
human D2R/β-arrestin [12] = target: T1, human D2R/β-arrestin; conditions: read-out: β-arrestin Antagonist
[13] = CHO-K1 cell line expressing human D2R/β-arrestin, quinpirole used as agonist

T1 sequence (P14416 whole entry): as above

Row | SMILES | EC50 (human D2R/β-arrestin [1]) [nM] | Ki (D2) [nM] | IC50 (human D2R/β-arrestin [2]) [nM] | EC50 (human D2R/β-arrestin [3]) [nM] | IC50 (human D2R/β-arrestin [4]; [13]) [nM] | IC50 (human D2R/β-arrestin [5]) [nM] | Microsomal Stability: % remaining after 60 minutes [6] | Plasma Stability: % remaining after 5 hours (Plasma stability, mouse) | solubility (Solubility in PBS) [µM] | IC50 (human D2R/β-arrestin [12]; [13]) [nM] | fraction unbound (plasma protein [7]) | fraction unbound (plasma protein [8]) | Plasma Stability: % remaining after 5 hours (Plasma stability, human) [%] | Plasma Stability: % remaining after 5 hours (Plasma stability, rat) [%] | Microsomal Stability: % remaining after 60 minutes [9] [%] | fraction unbound (plasma protein [10]) | Microsomal Stability: % remaining after 60 minutes [11] [%] | Plasma Protein Binding % bound (plasma protein [7]) | IC50 (human D2R/β-arrestin [12]) [nM] | IC50 (human D2R/β-arrestin [4]) [nM]
1 | CC1(C(=O)NC(c2ccc(F)cc2)c2ccccn2)CCN(CCOc2ccccc2)CC1 (single isomer, unassigned) [Compound 69b, N-((4-fluorophenyl)(pyridin-2-yl)methyl)-4-methyl-1-(2-phenoxyethyl)piperidine-4-carboxamide] | < 100 | 100 to 1000 | 100 to 1000 | 100 to 1000 | > 30000 |  |  |  |  |  |  |  |  |  |  |  |  |  |  | 
2 | Clc1ccc(C(c2ccccn2)N2CCC3(CCN(CCOc4ccccc4)CC3)C2)cc1 (stereo not drawn) [Compound 105, 2-((4-chlorophenyl)(pyridin-2-yl)methyl)-8-(2-phenoxyethyl)-2,8-diazaspiro[4.5]decane] | 100 to 1000 | < 100 | 100 to 1000 | 1000 to 10000 |  | > 30000 | m18% |  |  |  |  |  |  |  |  |  |  |  |  | 
3 | FC(F)(F)CN(CC1CCN(CCOc2ccccc2)CC1)C(c1ccc(Cl)cc1)c1ccccn1 (stereo not drawn) [Compound 125, N-((4-chlorophenyl)(pyridin-2-yl)methyl)-2,2,2-trifluoro-N-((1-(2-phenoxyethyl)piperidin-4-yl)methyl)ethanamine] | 100 to 1000 | 100 to 1000 | 100 to 1000 | > 30000 |  | 100 to 1000 | m12% |  |  |  |  |  |  |  |  |  |  |  |  | 
4 | O=C(NC(c1ccc(Cl)cc1)c1cccc(F)c1)C1CCN(CCOc2ccccc2)CC1 (stereo not drawn) [Compound 41] | > 30000 |  | 1000 to 10000 | > 30000 |  | 100 to 1000 | 64% | 100% | < 0.1 |  | 0.006 | 0.007 | 100 | 96 | 78 | 0.014 | 45 |  |  | 
5 | O=C(NC(c1ccc(Cl)cc1)c1ccccn1)C1CCN(CCOc2cccc(C(F)(F)F)c2)CC1 (stereo not drawn) [Compound 7, N-((4-chlorophenyl)(pyridin-2-yl)methyl)-1-(2-(3-(trifluoromethyl)phenoxy)ethyl) piperidine-4-carboxamide] | 100 to 1000 |  | 100 to 1000 | > 30000 |  | 100 to 1000 | 44% | 100% | 0.7 (≈ 0.363 µg/mL) |  | 0.004 |  | 91.5 | 93.5 | 76 |  | 87 |  |  | 
6 | CN(CC1CCN(CCOc2ccccc2F)CC1)C(c1ccc(Cl)cc1)c1ccccn1 (single isomer, unassigned) [Compound 72a, 1-(4-chlorophenyl)-N-((1-(2-(2-fluorophenoxy)ethyl)piperidin-4-yl)methyl)-N-methyl-1-(pyridin-2-yl)methanamine] | 100 to 1000 | 100 to 1000 | 100 to 1000 | 1000 to 10000 |  | > 30000 | m0% | m100% | 1.4 (≈ 0.655 µg/mL) |  |  |  |  |  |  |  |  |  |  | 
7 | O=C(NC(c1cccc(F)c1)c1ccccn1)C1CCN(CCOc2ccccc2)CC1 (stereo not drawn) [Compound 26] | > 30000 |  | 1000 to 10000 | > 30000 |  | 100 to 1000 | 66% | 92% | 460 (≈ 199 µg/mL) |  | 0.057 | 0.062 | 100 | 99 | 96 | 0.046 | 84 |  |  | 
8 | COc1cccc(C(c2ccccn2)N(C)CC2CCN(CCOc3ccccc3F)CC2)c1 (single isomer, unassigned) [Compound 77a, N-((1-(2-(2-fluorophenoxy)ethyl)piperidin-4-yl)methyl)-1-(3-methoxyphenyl)-N-methyl-1-(pyridin-2-yl)methanamine] | 100 to 1000 | 100 to 1000 | 100 to 1000 | > 30000 |  | 100 to 1000 | m1% |  |  |  |  |  |  |  |  |  |  |  |  | 
9 | O=C(NC(c1ccc2c(c1)OCO2)c1ccccn1)C1CCN(CCOc2ccccc2F)CC1 (stereo not drawn) [Compound 95, N-(benzo[d][1,3]dioxol-5-yl(pyridin-2-yl)methyl)-1-(2-(2-fluorophenoxy)ethyl) piperidine-4-carboxamide] | 100 to 1000 | 100 to 1000 | 100 to 1000 | > 30000 |  | 100 to 1000 | m33% |  |  |  |  |  |  |  |  |  |  |  |  | 
10 | O=C(NC(c1ccc(Cl)cc1)c1ccc(F)cn1)C1CCN(CCOc2ccccc2F)CC1 (stereo not drawn) [Compound 92, N-((4-chlorophenyl)(5-fluoropyridin-2-yl)methyl)-1-(2-(2-fluorophenoxy)ethyl)piperidine-4-carboxamide] | 100 to 1000 | 100 to 1000 | 100 to 1000 | > 30000 |  | 100 to 1000 | m22% |  |  |  |  |  |  |  |  |  |  |  |  | 
11 | O=C(NC(c1ccc2c(c1)OC(F)(F)O2)c1ccccn1)C1CCN(CCOc2ccccc2)CC1 (single isomer, unassigned) [Compound 119b] | < 100 |  |  | 100 to 1000 |  |  | m51% | m100% |  |  |  |  |  |  |  |  |  | m97.4% | 1000 to 10000 | > 30000
12 | CN(CC1CCN(CCOc2ccccc2F)CC1)C(c1ccc(Cl)cc1)c1ccccn1 (stereo not drawn) [Compound 72, 1-(4-chlorophenyl)-N-((1-(2-(2-fluorophenoxy)ethyl)piperidin-4-yl)methyl)-N-methyl-1-(pyridin-2-yl)methanamine] | < 100 | < 100 | < 100 | > 30000 |  | 1000 to 10000 |  |  |  |  |  |  |  |  |  |  |  |  |  | 
13 | O=C(NC(c1ccc(Cl)cc1)c1ccccn1)C1CCN(CCOc2ccccc2C(F)(F)F)CC1 (stereo not drawn) [Compound 6] | > 30000 | 100 to 1000 | < 100 | > 30000 |  | < 100 | 22% | 98.8% | 0.7 (≈ 0.363 µg/mL) |  | 0.008 | 0.007 | 99 | 69.3 | 32 |  | 52 |  |  | 

The next lines start with results.

Row | EC50 (human D2R/β-arrestin [1]) [nM] | Ki (D2) [nM] | IC50 (human D2R/β-arrestin [2]) [nM] | EC50 (human D2R/β-arrestin [3]) [nM] | IC50 (human D2R/β-arrestin [4]; [13]) [nM] | IC50 (human D2R/β-arrestin [5]) [nM] | Microsomal Stability: % remaining after 60 minutes [6] | Plasma Stability: % remaining after 5 hours (Plasma stability, mouse) | solubility (Solubility in PBS) [µM] | IC50 (human D2R/β-arrestin [12]; [13]) [nM] | SMILES | fraction unbound (plasma protein [7]) | fraction unbound (plasma protein [8]) | Plasma Stability: % remaining after 5 hours (Plasma stability, human) [%] | Plasma Stability: % remaining after 5 hours (Plasma stability, rat) [%] | Microsomal Stability: % remaining after 60 minutes [9] [%] | fraction unbound (plasma protein [10]) | Microsomal Stability: % remaining after 60 minutes [11] [%] | Plasma Protein Binding % bound (plasma protein [7]) | IC50 (human D2R/β-arrestin [12]) [nM] | IC50 (human D2R/β-arrestin [4]) [nM]
14 | > 30000 | 100 to 1000 | 100 to 1000 | > 30000 |  | < 100 | m2% |  |  |  | O=C(NC(c1ccc2c(c1)OC(F)(F)O2)c1ccccn1)C1CCN(CCOc2ccccc2F)CC1 (single isomer, unassigned) [Compound 94a, N-((2,2-difluorobenzo[d][1,3]dioxol-5-yl)(pyridin-2-yl)methyl)-1-(2-(2-fluorophenoxy)ethyl)piperidine-4-carboxamide] |  |  |  |  |  |  |  |  |  | 
15 | < 100 | 100 to 1000 | > 30000 | 100 to 1000 |  | > 30000 | m26% |  |  |  | O=C(NC(c1ccc2c(c1)OC(F)(F)O2)c1ccccn1)C1CCN(CCOc2ccccc2F)CC1 (single isomer, unassigned) [Compound 94b, N-((2,2-difluorobenzo[d][1,3]dioxol-5-yl)(pyridin-2-yl)methyl)-1-(2-(2-fluorophenoxy)ethyl)piperidine-4-carboxamide] |  |  |  |  |  |  |  |  |  | 
16 | 100 to 1000 | 100 to 1000 |  | > 30000 |  | > 30000 | m0% | m100% | 8 (≈ 3.6 µg/mL) | 1000 to 10000 | CN(CC1CCN(CCOc2ccccc2)CC1)C(c1ccc(Cl)cc1)c1ccccn1 (single isomer, unassigned) [Compound 79b, 1-(4-chlorophenyl)-N-methyl-N-((1-(2-phenoxyethyl)piperidin-4-yl)methyl)-1-(pyridin-2-yl)methanamine] |  |  |  |  |  |  |  |  |  | 
17 | < 100 | < 100 | < 100 | < 100 |  | > 30000 | m1% |  |  |  | CC1(C(=O)NC(c2ccc(Cl)cc2)c2ccccn2)CCN(CCOc2ccccc2)CC1 (single isomer, unassigned) [Compound 144a, N-((4-chlorophenyl)(pyridin-2-yl)methyl)-4-methyl-1-(2-phenoxyethyl)piperidine-4-carboxamide] |  |  |  |  |  |  |  |  |  | 
